Assay results as given in patent US12195424B2, “Antibiotic compounds” (The General Hospital Corporation, priority 2017, dated 2025).
≈ marks a conversion by molar mass, not a printed value. Where two headings read alike, the source gives them in different places. Values belong to the molecule of their own block, whether it stands above or below them.

What was measured:
S. aureus strain MW2 = test: Minimal inhibitory concentration (MIC) assay; type: cell-based; conditions: for MIC: growing MRSA MW2 cells; for fold decrease in antimicrobial activity (fold higher MIC) vs. parent compound CD437: relative to CD437; for antimicrobial activity: S. aureus MW2, in words
From the text: Bacterial strains, growth conditions and persister isolation. Methicillin-resistant S. aureus (MRSA) strain MW2 BAA-1707, the VanA-type vancomycin-resistant S. aureus strain VRS1, 11 clinical S. aureus isolates 8 clinical Enterococcus faecium isolates (including VanB-type VRE isolates, C68 and WB312, and a VanA-type VRE isolate WC196), Klebsiella pneumoniae WGLW2 (BEI Resources, Manassas, VA, USA), Acinetobacter baumannii ATCC 17978, Pseudomonas aeruginosa PA14, and Enterobacter aerogenes ATCC 13048 were used to test antimicrobial activity. S. aureus and E. faecium strains were grown in tryptic soy broth (TSB) (BD, Franklin Lakes, NJ, USA) or brain-heart infusion (BHI) broth (BD, Franklin Lakes, NJ, USA), respectively at 37° C. K. pneumoniae, A. baumannii, P aeruginosa, and E. aerogenes were grown in Luria Bertani (LB) broth (BD, Franklin Lakes, NJ, USA).
(§1) Minimal inhibitory concentration (MIC) assay. The MICs of antibiotics were determined by the standard micro-dilution method recommended by the Clinical and Laboratory Standards Institute. The assay was conducted in triplicate.

human erythrocytes = test: Human blood hemolysis; type: cell-based; conditions: compared with CD437, in words
Experimental: Human blood hemolysis. Hemolytic activity of retinoids on human erythrocytes was evaluated using a previously described method with modifications. 10% human erythrocytes were purchased from Rockland Immunochemicals (Limerick, PA, USA). The erythrocytes were diluted to 4% with PBS, and 100 μl was added to 100 μl of two-fold serial dilutions of compounds in PBS, 0.2% DMSO (negative control), or 2% Triton-X 100 (positive control) in a 96-well plate. The plate was incubated at 37° C. for 1 h and then centrifuged at 500×g for 5 min. 100 μl of the supernatant was transferred to a fresh 96-well plate and absorbance of supernatants was measured at 540 nm. Percent hemolysis was calculated using the following equation: (A540 nm of compound treated sample−A540 nm of 0.1% DMSO treated sample)/(A540 nm of 1% Triton X-100 treated sample−A540 nm of 0.1% DMSO treated sample)×100. HC50 (concentration of compound causing 50% hemolysis) was determined using SigmaPlot 10.0 (Systat Software Inc., San Jose, CA, USA).

rat primary hepatocytes = test: Hepatotoxicity in primary hepatocytes; type: cell-based; conditions: 24 h, compared with CD437, in words
Experimental: Cytotoxicity. Cryopreserved rat and human primary hepatocytes were purchased from the Cell Resource Core at Massachusetts General Hospital (Boston, MA, USA). The hepatocytes were cultured in a collagen sandwiched configuration in 24-well plates, as described previously. Briefly, 4×10^5 live cells were seeded in 24-well plates coated with rat tail collagen type I. Plates were incubated in a humidified 5% CO2 incubator at 37° C. for 4 h to allow cells to attach to the collagen gel. The cells were washed and then cultured in 0.5 ml standard hepatocyte culture medium consisting of pre-warmed Dulbecco's modified Eagle's medium (DMEM) media supplemented with 10% FBS, 0.5 U/ml insulin, 14 ng/ml glucagon, 20 ng/ml EGF, 7.5 μg/ml hydrocortisone and 200 U/ml penicillin-streptomycin. The cell cultures were incubated in a humidified 5% CO2 incubator at 37° C. At 24 h after seeding the cells, a top layer of collagen gel was deposited on the hepatocytes attached to the bottom collagen layer and incubated for additional 24 h. For cytotoxicity tests, HepG2, RPTEC, and NHEK were cultured at 70-80% confluence in tissue culture treated 96-well plates in a volume of 100 μl/well corresponding culture media. […] WST-1 reduction was measured at 450 nm. The percent fluorescence relative to that of the no-treatment control was calculated. […]

MRSA MW2 persisters = test: Persister killing assay; type: cell-based, S. aureus; conditions: Staphylococcus aureus; MRSA MW2 persisters; read-out: MIC against MRSA persisters
Experimental: Persister killing assay. […] Persistency of stationary-phase S. aureus VRS1 was evaluated by treating with 100×MIC daptomycin and 100×MIC linezolid, because the strain is resistant to vancomycin, gentamicin, ciprofloxacin, and rifampicin. We prepared persister cells of the 13 S. aureus strains by growing cultures overnight to stationary phase at 37° C. at 225 rpm. The overnight cultures were washed three times with PBS and diluted to ˜5×10^7 ? CFU/ml with the same buffer. 2 ml of the persister suspension containing appropriate concentrations of antibiotics was added to the wells of a 96-well assay block (Corning Costar 3960) and incubated at 37° C., with shaking at 225 rpm. At specific times, 400 μl samples were removed and washed once with PBS to remove the antibiotic. The samples were serially diluted 10^5 fold with PBS and spot-plated onto TSA plates. After incubating the plates overnight (˜18 h) at 37° C., the colonies were counted to enumerate the number of cells. These experiments were conducted in triplicate.

[1] = test system: Cutibacterium (Propionibacterium) acnes; test: Growth inhibition / MIC against P. acnes; type: cell-based; conditions: in words (FIG. 11)
Experimental: as §1
More specifically, uptake of SYTOX Green by Cutibacterium (Propionibacterium) acnes cells treated with retinoids CD437 and Analog 2 increased, indicating higher permeability (FIG. 12; individual data points (n=3 biologically independent samples) and means are shown).

[2] = in words; cited from earlier work
Maximum tolerated dose = type: in vivo; conditions: mice, every 12 h for 3 days; Analog 2 10-80 mg/kg i.p., vancomycin 25 mg/kg i.p.; P>0.7
Experimental: Maximum tolerated dose. Six-week-old female CD1 ICR outbred mice (20-25 g) were obtained from Charles River Laboratories (Wilmington, MA, USA). Analog 2 was dissolved in a 1:1 solution of Kolliphor EL (Sigma-Aldrich, St Louis, MO, USA) and ethanol and then diluted 1:10 in saline to a final concentration of 4 mg/ml. Groups of mice (n=6) were treated with 10, 20, 40, 80 mg/kg Analog 2 i.p. or vancomycin (25 mg/kg) every 12 h for 3 days. Control mice were injected with 400 μl of 10% Kolliphor EL/ethanol in saline i.p. every 12 h for 3 days. Mice were closely monitored until they were euthanized at 72 h from the first infection. After euthanizing mice, blood was collected by cardiac puncture. All samples were stored at 4° C. until for analysis. Serum was analyzed for alanine aminotransferase and urea nitrogen content with commercially available kits, following the manufacturer's protocol (Pointe Scientific, Canton, MI, USA). No statistical methods were used to predetermine samples size. The experiments were not randomized, and investigators were not blinded to allocation during experiments and outcome assessment. This study and all experimental protocols were approved by the Rhode Island Hospital Institutional Animal Care and Use Committee (RIH IACUC) and conducted in accordance with the Animal Welfare Act and National Institutes of Health guidelines for animal care and use. Statistical significance among each group was analyzed by one-way ANOVA with post-hoc Tukey test using PASW Statistics 18 (SPSS Inc. Chicago, IL, USA) and GraphPad Prism 7 (GraphPad Software, La Jolla, CA, USA).

[3] = test system: Cutibacterium (Propionibacterium) acnes; test: Morphology of treated P. acnes bacteria; type: cell-based; conditions: in words (FIG. 13)
[4] = Staphylococcus aureus, read-out: MIC

MIC (S. aureus strain MW2; [4]): 16 µg/mL (≈ 37.2 µM)
SMILES: O=C(O)c1cc(O)c2cc(-c3ccc(O)c(C45CC6CC(CC(C6)C4)C5)c3)cc(O)c2c1 [Analog 14, 6-(3-(adamantan-1-yl)-4-hydroxyphenyl)-4,8-dihydroxy-2-naphthoic acid]
fold decrease in antimicrobial activity vs. Analog 11 (S. aureus strain MW2; MRSA MW2, another decrease relative to Analog 11): 4 fold

fold decrease in antimicrobial activity (fold higher MIC) vs. parent compound CD437 (S. aureus strain MW2; MRSA MW2): > 30 fold | MIC (S. aureus strain MW2; [4]): 32 µg/mL (≈ 80.3 µM)
SMILES: O=C(O)c1ccc2cc(-c3cc(C45CC6CC(CC(C6)C4)C5)ccc3O)ccc2c1 [Analog 10, 6-(5-(adamantan-1-yl)-2-hydroxyphenyl)-2-naphthoic acid]

fold decrease in antimicrobial activity (fold higher MIC) vs. parent compound CD437 (S. aureus strain MW2; MRSA MW2): 4 fold | MIC (S. aureus strain MW2; [4]): 4 µg/mL (≈ 9.65 µM)
SMILES: O=C(O)c1cc(O)c2cc(-c3ccc(O)c(C45CC6CC(CC(C6)C4)C5)c3)ccc2c1 [Analog 11, 6-(3-(adamantan-1-yl)-4-hydroxyphenyl)-4-hydroxy-2-naphthoic acid]

fold decrease in antimicrobial activity (fold higher MIC) vs. parent compound CD437 (S. aureus strain MW2; MRSA MW2): 2 fold | MIC (S. aureus strain MW2; [4]): 2 µg/mL (≈ 5.64 µM)
SMILES: O=C(O)c1ccc2cc(-c3ccc(O)c(Cc4ccccc4)c3)ccc2c1 [Analog 9, 6-(3-benzyl-4-hydroxyphenyl)-2-naphthoic acid]
hemolytic activity (human erythrocytes): similar | hepatotoxicity (rat primary hepatocytes): similar | MIC (MRSA MW2 persisters): 16 µg/mL (≈ 45.1 µM)

MIC (S. aureus strain MW2; [4]): 8 µg/mL (≈ 18.6 µM)
SMILES: O=C(O)c1cc(O)c2cc(-c3cc(C45CC6CC(CC(C6)C4)C5)ccc3O)cc(O)c2c1 [Analog 16, 6-(5-(adamantan-1-yl)-2-hydroxyphenyl)-4,8-dihydroxy-2-naphthoic acid]

MIC (S. aureus strain MW2): 1 µg/mL (≈ 2.51 µM)
SMILES: O=C(O)c1ccc2cc(-c3ccc(O)c(C45CC6CC(CC(C6)C4)C5)c3)ccc2c1 [CD437, reference compound]
morphology of bacteria [3]: altered and elongated | growth inhibition [1]: inhibit the growth

More lines, now with the values behind:

SMILES: COc1ccc(-c2ccc3cc(C(=O)O)ccc3c2)cc1C12CC3CC(CC(C3)C1)C2 [adapalene]
growth inhibition [1]: not

SMILES: COc1ccc(-c2ccc3cc(CO)ccc3c2)cc1C12CC3CC(CC(C3)C1)C2 [Analog 6, (6-(3-(adamantan-1-yl)-4-methoxyphenyl)naphthalen-2-yl)methanol]
antimicrobial activity (S. aureus strain MW2): eliminated

SMILES: O=C(O)/C=C/c1ccc(-c2ccc(O)c(C34CC5CC(CC(C5)C3)C4)c2)cc1 [adarotene]
excretion [2]: excreted rapidly

SMILES: CN[C@H](CC(C)C)C(=O)N[C@H]1C(=O)N[C@@H](CC(N)=O)C(=O)N[C@H]2C(=O)N[C@H]3C(=O)N[C@H](C(=O)N[C@H](C(=O)O)c4cc(O)cc(O)c4-c4cc3ccc4O)[C@H](O)c3ccc(c(Cl)c3)Oc3cc2cc(c3O[C@@H]2O[C@H](CO)[C@@H](O)[C@H](O)[C@H]2O[C@H]2C[C@](C)(N)[C@H](O)[C@H](C)O2)Oc2ccc(cc2Cl)[C@H]1O [vancomycin, reference compound]
alanine aminotransferase (ALT) vs. control (Maximum tolerated dose): lack of significant differences | blood urea nitrogen (BUN) vs. control (Maximum tolerated dose): lack of significant differences

SMILES: NC(=O)c1ccc2cc(-c3ccc(O)c(C45CC6CC(CC(C6)C4)C5)c3)ccc2c1 [Analog 3, 6-(3-(adamantan-1-yl)-4-hydroxyphenyl)-2-naphthamide]
antimicrobial activity (S. aureus strain MW2): comparatively low

SMILES: O=C(O)c1cc(O)c2cc(-c3cc(C45CC6CC(CC(C6)C4)C5)ccc3O)ccc2c1 [Analog 13, 6-(5-(adamantan-1-yl)-2-hydroxyphenyl)-4-hydroxy-2-naphthoic acid]
fold increase in antimicrobial activity vs. Analog 10 (S. aureus strain MW2; MRSA MW2, relative to Analog 10): 8 fold | MIC (S. aureus strain MW2; [4]): 4 µg/mL (≈ 9.65 µM)
